Patent US5595730A, “Lactate dehydrogenase inhibitors in cosmetic compositions” (priority 1996, dated 1997)
Where two headings read alike, the source gives them in different places.

Assays:
[1] = system: Fibroblast Lactate Dehydrogenase; experiment: Fibroblast lactate dehydrogenase (LDH) inhibition, cell lysate; format: biochemical, human
Protocol: (§1) All reagents were purchased from Sigma Chemical Co., St. Louis, Mo., USA. Sigma procedure No. 500 was modified for our purposes. One mL of pyruvate (pH=7.5) substrate (Sigma […]-1) was added to a vial containing 1 mg NADH (Sigma 340-101). In a 96-well plate, the following components were added to each test well: 10 μl pyruvate/NADH mixture, and 10 μl cell lysate. For preparation cell lysates, neonatal human keratinocytes or fibroblasts (Clonetic Corp., San Diego, Calif.) were cultured in tissue culture plates (Corning, USA). Cells were scraped in PBS (pH=7.4) and this solution was used as a source of L-lactate dehydrogenase. If such cell lysate was not available, a commercial preparation of L-lactic dehydrogenase (E.C.1.1.1.27), Sigma L9889, from porcine heart could be used in place of the cell lysate. For positive control, the inhibitor was replaced with 10 μl of PBS. For blank determination, the lysate or enzyme was replaced with […]. After mixing, the plate was incubated for 30 minutes at 37° C. Then 20 μl of color reagent (Sigma 505-2) was added to each well. After 20 minutes at room temperature, 150 μl of 0.4N NaOH was added, and the plate was read for absorbance at 490 nm in a Dynatech MR 7000 Microplate Reader. To calculate % inhibition, the control activity (CA) was first determined by subtracting the absorbance of the positive control from the blank. Then the activity in the presence of the inhibitor (IA) was calculated by subtracting the appropriate absorbance from the blank. % Inhibition was then calculated as: ((CA-IA)/CA)*100.

[2] = system: Normal human epidermal keratinocytes (NHEK); experiment: Keratinocyte proliferation (DNA content, fluorometric); format: cell-based; conditions: for activation at 313 µM / activation at 625 µM / activation at 1250 µM / activation at 2500 µM / activation at 5000 µM: Homo sapiens, NHEK, 72 h
Protocol: Normal human epidermal keratinocytes (NHEK) derived from neonatal foreskin were used for all experiments. Media were purchased from Clonetics Corp., San Diego, Calif. Cell stocks frozen in passage 2 were grown in Keratinocyte Growth Medium (KGM) and passaged when 70-80% confluent. Cells were seeded in 96 well plates (Corning) at a density of 7500 cells/well in KGM. After 24 hours, cells were rinsed and dosed with test compounds in 200 μl of Keratinocyte Basal Medium (KBM). Plates were incubated for three days at 37° C., 5% CO2. Cell proliferation was estimated by assaying for DNA content by a fluorometric method described by Rago et al. (Analytical Biochemistry, 191:31-34, 1990). Medium was removed and cells were rinsed with phosphate buffered saline solution. 100 μl of sterile distilled water was added to each well and plates were frozen at -70° C. for one and a half hours. Plates were thawed for one hour at which time 100 μl of a 20 ug/ml solution of Bisbenzimide H33258 fluorochrome (Calbiochem Corp., La Jolla, Calif.) was added to each well. The fluorochrome was prepared just prior to use in 10 mM Tris, 1 mM EDTA, 4M NaCI, pH 7.4. Plates were read in a Millipore Cytofluor fluorescent plate reader to quantify DNA (excitation 360 nm, emission 460 nm). Percent increase over control was calculated from blank-corrected readings as (treated-untreated)/(untreated)*100. Each data point in the Tables below represents a mean of 5 or 6 replicates.
The procedure of Example 2 was repeated except that various co-active ingredients were tested for their ability to stimulate keratinocyte proliferation.
The procedure of Example 2 was repeated to test the effect of combination of an LDH inhibitor with another carboxylic acid on keratinocyte proliferation.

[3] = system: Keratinocyte Lactate Dehydrogenase; experiment: Keratinocyte lactate dehydrogenase (LDH) inhibition, cell lysate; format: biochemical, human
Protocol: as §1

[4] = Table 3, 0.313 mM, three days, read-out: Keratinocyte Proliferation (% increase over control)
[5] = Table 3, 0.625 mM, three days, read-out: Keratinocyte Proliferation (% increase over control)
[6] = Table 3, 1.25 mM, three days, read-out: Keratinocyte Proliferation (% increase over control)
[7] = Table 3, 2.5 mM, three days, read-out: Keratinocyte Proliferation (% increase over control)
[8] = Table 3, 5 mM, three days, read-out: Keratinocyte Proliferation (% increase over control)

Molecule	Fibroblast Lactate Dehydrogenase Inhibition (% Inhibition) ([1]; 0.625 mM)	Fibroblast Lactate Dehydrogenase Inhibition (% Inhibition) ([1]; 1.25 mM)	Fibroblast Lactate Dehydrogenase Inhibition (% Inhibition) ([1]; 2.5 mM)	Fibroblast Lactate Dehydrogenase Inhibition (% Inhibition) ([1]; 5 mM)	other results
C[C@@H](O)C(=O)O [D-lactate]	0%	0%	0%	0%	–
NCC(=O)O [Glycinate]	0%	0%	0%	0%	–
O=C(O)CO [Glycolate]	0%	0%	0%	0%	–
O=CC(=O)O [Glyoxylate]	–	–	–	–	activation at 313 µM [2, 4]: 33%; activation at 625 µM [2, 5]: 36%; activation at 1250 µM [2, 6]: 9%; activation at 2500 µM [2, 7]: 0%; activation at 5000 µM [2, 8]: 0%
O=C(O)C(=O)C(=O)O [Ketomalonate]	–	–	–	–	activation at 313 µM [2, 4]: 23%; activation at 625 µM [2, 5]: 10%; activation at 1250 µM [2, 6]: 0%; activation at 2500 µM [2, 7]: 0%; activation at 5000 µM [2, 8]: 0%; Keratinocyte proliferation, % Increase Over Control ([2]; Table 7, single agent alone, 0.156 mM): 20%; Keratinocyte proliferation, % Increase Over Control ([2]; Table 7, single agent alone, 0.313 mM): 48%; Keratinocyte proliferation, % Increase Over Control ([2]; Table 7, single agent alone, 0.625 mM): 50%; Keratinocyte proliferation, % Increase Over Control ([2]; Table 7, single agent alone, 1.25 mM): 59%; Keratinocyte proliferation, % Increase Over Control ([2]; Table 7, single agent alone, 2.5 mM): 45%; Keratinocyte proliferation, % Increase Over Control ([2]; Table 7, single agent alone, 5.0 mM): 20%
C[C@H](O)C(=O)O [L-lactate]	0%	0%	0%	0%	–
O=C(O)C[C@H](O)C(=O)O [L-malate]	0%	0%	0%	0%	–
O=C(O)CC(=O)O [Malonate]	0%	0%	0%	0%	–
O=C(O)C(=O)O [Oxalate]	54%	71%	85%	89%	Keratinocyte Lactate Dehydrogenase Inhibition (% Inhibition) ([3]; 0.625 mM): 39%; Keratinocyte Lactate Dehydrogenase Inhibition (% Inhibition) ([3]; 1.25 mM): 58%; Keratinocyte Lactate Dehydrogenase Inhibition (% Inhibition) ([3]; 2.5 mM): 76%; Keratinocyte Lactate Dehydrogenase Inhibition (% Inhibition) ([3]; 5 mM): 87%; activation at 313 µM ([2]; read-out: Keratinocyte Proliferation (% increase over control), Table 3, 0.313 mM, three days): 18%; activation at 625 µM ([2]; read-out: Keratinocyte Proliferation (% increase over control), Table 3, 0.625 mM, three days): 27%; activation at 1250 µM ([2]; read-out: Keratinocyte Proliferation (% increase over control), Table 3, 1.25 mM, three days): 2%; activation at 2500 µM ([2]; read-out: Keratinocyte Proliferation (% increase over control), Table 3, 2.5 mM, three days): 0%; activation at 5000 µM ([2]; read-out: Keratinocyte Proliferation (% increase over control), Table 3, 5 mM, three days): 0%
c1cn[nH]c1 [Pyrazole]	0%	0%	0%	0%	–
O=C(O)C(O)C(=O)O [Tartronate]	–	–	–	–	activation at 313 µM [2, 4]: 37%; activation at 625 µM [2, 5]: 45%; activation at 1250 µM [2, 6]: 51%; activation at 2500 µM [2, 7]: 50%; activation at 5000 µM [2, 8]: 17%; Keratinocyte proliferation, % Increase Over Control ([2]; Table 8, single agent alone, 0.156 mM): 44%; Keratinocyte proliferation, % Increase Over Control ([2]; Table 8, single agent alone, 0.313 mM): 69%; Keratinocyte proliferation, % Increase Over Control ([2]; Table 8, single agent alone, 0.625 mM): 58%; Keratinocyte proliferation, % Increase Over Control ([2]; Table 8, single agent alone, 1.25 mM): 67%; Keratinocyte proliferation, % Increase Over Control ([2]; Table 8, single agent alone, 2.5 mM): 76%; Keratinocyte proliferation, % Increase Over Control ([2]; Table 8, single agent alone, 5.0 mM): 21%
Methylpyrazole	0%	0%	0%	0%	–
